One assay addresses T1, PLK3 (Homo sapiens, UniProt Q9H4B4).
T1 construct: purchased Invitrogen PV3812
Kind of assay: PLK3 Inhibition Assay (Z-Lyte). In kind it is biochemical. The following applies: 100 μM ATP, 21 nM PLK3. The method, then:
PLK3 inhibition was determined using the Z-Lyte assay kit from Invitrogen (cat #PV3802). The assay was performed using the recommended manufacturer's instructions with 100 μM ATP and 21 nM PLK3 (Invitrogen cat #PV3812). The % inhibition values were determined according to the manufacturer's directions and IC50 values were obtained using a non-linear 4 point logistic curve fit (XLfit4, IDBS).

Another assay concerns the target T2, Aurora B (Homo sapiens, UniProt Q96GD4).
T2 construct: purchased Invitrogen PV3970
Kind of assay: Aurora B Inhibition Assay (Z-Lyte). The settings on record: for IC50: 128 μM ATP, 28 nM Aurora B, read-out: Aurora B IC50 Ranges. In kind it is biochemical. The method, then:
Aurora B inhibition was determined using the Z-Lyte assay kit from Invitrogen. The assay was performed using the recommended manufacturer's instructions with 128 μM ATP and 28 nM Aurora B (Invitrogen cat #PV3970). The % inhibition values were determined according to the manufacturer's directions and IC50 values were obtained using a non-linear 4 point logistic curve fit (XLfit4, IDBS)

In a further assay the target is T3, human PLK4 (Homo sapiens, UniProt O00444).
T3 construct: amino terminal GST fusion of residues 1-391 of human PLK4; made in house; host or cells: E. coli
T3 sequence (O00444 1-391): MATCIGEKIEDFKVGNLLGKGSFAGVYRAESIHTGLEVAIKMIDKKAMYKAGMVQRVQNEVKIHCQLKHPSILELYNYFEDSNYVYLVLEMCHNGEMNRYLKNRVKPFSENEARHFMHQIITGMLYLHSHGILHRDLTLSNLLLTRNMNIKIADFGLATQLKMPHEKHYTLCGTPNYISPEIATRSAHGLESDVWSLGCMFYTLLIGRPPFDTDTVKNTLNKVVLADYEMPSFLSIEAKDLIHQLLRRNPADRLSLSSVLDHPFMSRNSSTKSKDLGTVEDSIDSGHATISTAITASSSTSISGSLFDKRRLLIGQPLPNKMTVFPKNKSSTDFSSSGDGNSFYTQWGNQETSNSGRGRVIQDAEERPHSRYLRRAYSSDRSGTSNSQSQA
Kind of assay: PLK4 Inhibition Assay (indirect ELISA). In kind it is biochemical. The following applies: 15 μM ATP, 4 nM GST-PLK4; read-out: PLK4 IC50 Ranges. A digest of the protocol: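 IC50 values, from 4-point logistic fitting, reflect remaining activity measured by indirect ELISA. Enzyme was GST-PLK4 treated with lambda phosphatase and given a 15-minute pre-incubation with compound before ATP start.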
A general note: An ELISA detects its analyte on a solid surface through an enzyme-linked reagent.

Assay [1] relates to MCF-7 luminal breast cancer cell line. Kind of assay: Cell growth inhibition, Sulforhodamine B assay (SRB). Format: cell-based. The following applies: Homo sapiens, MCF7, 120 h; 5 days culture, SRB; read-out: Cell Line GI50 Range, MCF-7. The method, then:
(§1) Breast cancer cells (MCF-7, MDA-MB-468, HCC1954), colon cancer cells (SW620) and lung cancer cells (A549), together with human mammary epithelial primary cells (HMEC), were seeded (1000 to 4000 per 80 μl per well depending on the cell growth rate) into 96 well plates, 24 hours before compound overlay. Compounds were prepared as 10 mM stock solutions in 100% DMSO which were diluted with DMEM (Dulbecco's Modified Eagle's Medium) cell growth Medium (Invitrogen, Burlington, ON, Canada) containing 10% FBS (Fetal Bovine Serum) to concentrations ranging from 50 nM to 250 μM. Aliquots (20 μl) from each concentration were overlaid to 80 μl of the pre-seeded cells in the 96 well plates to make final concentrations of 10 nM to 50 μM. The cells were cultured for 5 days before the Sulforhodamine B assay (SRB) was performed to determine the compound's cell growth inhibition activity.
(§2) Sulforhodamine B (purchased from Sigma, Oakville, ON, Canada) is a water-soluble dye that binds to the basic amino acids of the cellular proteins. Thus, colorimetric measurement of the bound dye provides an estimate of the total protein mass that is related to the cell number. the cells are fixed in situ by gently aspirating off the culture media and adding 50 μl ice cold 10% Tri-chloroacetic Acid (TCA) per well and incubate at 4° C. for 30-60 min, The plates are washed with water five times and allowed to air dry for 5 min. Addition of 50 μl 0.4% (w/v) SRB solution in 1% (v/v) acetic acid to each well and incubatation for 30 min at RT completes the staining reaction. Following staining, plates are washed four times with 1% acetic acid to remove unbound dye and then allowed to air dry for 5 min. The stain is solubilized with 100 μl of 10 mM Tris pH10.5 per well. Absorbance is read at 570 nm.
(§3) The percentage (%) of relative growth inhibition was calculated by comparing to DMSO treated only cells (100%). GI50's were determined for compounds with cytotoxic activity. The GI50 was calculated using GraphPad PRISM software (GraphPad Software, Inc., San Diego, Calif., USA).
(In general: The SRB assay estimates cell density from bound dye.)

For a further assay, the system named is A549 lung cancer cells. The assay is described as above. Format: cell-based. The following applies: Homo sapiens, A549, 120 h, 5 days culture, read-out: Cell Line GI50 Range, A-549. As to the method:
as §1, §2, §3

Assay [2] concerns HCC1954 basal breast cancer cell line. The description is as above. In kind it is cell-based. The following applies: Homo sapiens, HCC1954, 120 h, 5 days culture, read-out: Cell Line GI50 Range, HCC-1954. As to the method:
as §1, §2, §3

The subject of another assay is SW620 colon cancer cells. The assay is described as above. Format: cell-based. The settings on record: Homo sapiens, SW-620, 120 h, 5 days culture, read-out: Cell Line GI50 Range, SW-620. The method, then: as §1, §2, §3
Assay [3] has as its system MDA-MB-468 basal breast cancer cell line. Described as above. In kind it is cell-based. The settings on record: Homo sapiens, MDA-MB-468, 120 h; 5 days culture, SRB; read-out: Cell Line GI50 Range, MDA-MB-468. As to the method: as §1, §2, §3
The target of another assay is T4, PLK1 (Homo sapiens, UniProt P53350).
T4 construct: purchased Invitrogen PV3501
T4 sequence (P53350 whole entry): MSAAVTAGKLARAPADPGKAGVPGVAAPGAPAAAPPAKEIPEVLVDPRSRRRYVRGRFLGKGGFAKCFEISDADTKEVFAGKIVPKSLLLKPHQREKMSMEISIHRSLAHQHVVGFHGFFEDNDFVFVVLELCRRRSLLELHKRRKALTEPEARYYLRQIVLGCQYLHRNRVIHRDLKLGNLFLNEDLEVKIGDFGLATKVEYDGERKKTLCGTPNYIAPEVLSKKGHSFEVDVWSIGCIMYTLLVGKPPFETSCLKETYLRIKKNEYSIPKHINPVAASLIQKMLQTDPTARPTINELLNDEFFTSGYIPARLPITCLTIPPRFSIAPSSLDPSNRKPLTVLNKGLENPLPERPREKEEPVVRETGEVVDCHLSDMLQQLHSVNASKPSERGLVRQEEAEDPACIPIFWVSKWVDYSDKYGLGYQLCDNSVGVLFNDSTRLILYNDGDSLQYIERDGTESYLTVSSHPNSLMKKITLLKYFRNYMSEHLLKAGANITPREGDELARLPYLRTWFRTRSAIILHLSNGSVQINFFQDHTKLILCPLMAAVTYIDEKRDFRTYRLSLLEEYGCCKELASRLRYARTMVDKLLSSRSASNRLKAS
Description: PLK1 Inhibition Assay (Z-Lyte). Format: biochemical. The settings on record: for inhibition at 10 µM: 10 μM compound, read-out: PLK1 relative inhibition percentage at a dose of 10 μM; for IC50: 25 μM ATP, 8 nM PLK1, read-out: PLK1 IC50 Ranges. The method, then:
PLK1 inhibition was determined using the Z-Lyte assay kit from Invitrogen (cat #PV3802). […] The % inhibition values were determined according to the manufacturer's directions and IC50 values were obtained using a non-linear 4 point logistic curve fit (XLfit4, IDBS)

The target of another assay is T5, Aurora A (Homo sapiens, UniProt O14965).
T5 construct: purchased Invitrogen PV3612
T5 sequence (O14965 1-403): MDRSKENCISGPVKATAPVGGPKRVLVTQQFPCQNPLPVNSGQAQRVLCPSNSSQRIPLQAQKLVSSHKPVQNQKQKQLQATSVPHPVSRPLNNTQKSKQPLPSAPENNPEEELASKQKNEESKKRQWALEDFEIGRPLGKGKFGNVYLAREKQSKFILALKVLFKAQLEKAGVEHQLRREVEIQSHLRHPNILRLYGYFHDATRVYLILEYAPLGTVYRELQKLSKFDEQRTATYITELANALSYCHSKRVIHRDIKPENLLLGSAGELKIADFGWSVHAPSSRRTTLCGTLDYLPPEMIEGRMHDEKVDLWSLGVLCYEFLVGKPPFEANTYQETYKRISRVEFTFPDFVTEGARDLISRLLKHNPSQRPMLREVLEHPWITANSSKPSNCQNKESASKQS
Kind of assay: Aurora A Inhibition Assay (Z-Lyte). Format: biochemical. The settings on record: for inhibition at 10 µM: 10 μM compound, read-out: Aurora A relative inhibition percentage at a dose of 10 μM. As to the method: Aurora A inhibition was determined using the Z-Lyte assay kit from Invitrogen. The assay was performed using the recommended manufacturer's instructions with 20 μM ATP and 12 nM Aurora A (Invitrogen cat #PV3612). The % inhibition values were determined according to the manufacturer's directions and IC50 values were obtained using a non-linear 4 point logistic curve fit (XLfit4, IDBS)

For the next assay, the target named is T6, PLK2 (Homo sapiens, UniProt Q9NYY3).
T6 construct: purchased Invitrogen PV4204
T6 sequence (Q9NYY3 whole entry): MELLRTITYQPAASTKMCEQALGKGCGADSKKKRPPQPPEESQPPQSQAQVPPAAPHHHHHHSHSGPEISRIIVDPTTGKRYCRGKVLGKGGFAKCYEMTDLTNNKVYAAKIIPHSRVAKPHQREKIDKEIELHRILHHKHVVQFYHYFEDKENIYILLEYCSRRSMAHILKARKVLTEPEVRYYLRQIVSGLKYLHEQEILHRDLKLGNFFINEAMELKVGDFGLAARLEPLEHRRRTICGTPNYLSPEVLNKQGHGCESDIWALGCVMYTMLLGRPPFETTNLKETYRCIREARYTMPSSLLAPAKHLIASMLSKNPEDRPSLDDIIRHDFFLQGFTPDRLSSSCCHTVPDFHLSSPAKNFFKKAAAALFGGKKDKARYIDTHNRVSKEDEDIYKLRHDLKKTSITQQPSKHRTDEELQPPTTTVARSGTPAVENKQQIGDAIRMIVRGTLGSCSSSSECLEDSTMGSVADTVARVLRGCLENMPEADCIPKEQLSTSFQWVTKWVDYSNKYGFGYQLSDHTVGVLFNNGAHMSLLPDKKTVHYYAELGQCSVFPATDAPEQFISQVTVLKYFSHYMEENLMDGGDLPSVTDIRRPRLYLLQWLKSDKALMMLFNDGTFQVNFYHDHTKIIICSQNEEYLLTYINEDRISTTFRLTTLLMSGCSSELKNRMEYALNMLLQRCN
Kind of assay: PLK2 Inhibition Assay (Z-Lyte). Format: biochemical. The following applies: for inhibition at 10 µM: 10 μM compound, read-out: PLK2 relative inhibition percentage at a dose of 10 μM. As to the method:
PLK2 inhibition was determined using the Z-Lyte assay kit from Invitrogen (cat #PV3802). The assay was performed using the recommended manufacturer's instructions with 60 μM ATP and 133 nM PLK2 (Invitrogen cat #PV4204). The % inhibition values were determined according to the manufacturer's directions and IC50 values were obtained using a non-linear 4 point logistic curve fit (XLfit4, IDBS)

The record followed here is patent publication US8765748B2, “Indazolyl, benzimidazolyl, benzotriazolyl substituted indolinone derivatives as kinase inhibitors useful in the treatment of cancer” (University Health Network, priority 2007, dated 2014).

T1 sequence (Q9H4B4 whole entry): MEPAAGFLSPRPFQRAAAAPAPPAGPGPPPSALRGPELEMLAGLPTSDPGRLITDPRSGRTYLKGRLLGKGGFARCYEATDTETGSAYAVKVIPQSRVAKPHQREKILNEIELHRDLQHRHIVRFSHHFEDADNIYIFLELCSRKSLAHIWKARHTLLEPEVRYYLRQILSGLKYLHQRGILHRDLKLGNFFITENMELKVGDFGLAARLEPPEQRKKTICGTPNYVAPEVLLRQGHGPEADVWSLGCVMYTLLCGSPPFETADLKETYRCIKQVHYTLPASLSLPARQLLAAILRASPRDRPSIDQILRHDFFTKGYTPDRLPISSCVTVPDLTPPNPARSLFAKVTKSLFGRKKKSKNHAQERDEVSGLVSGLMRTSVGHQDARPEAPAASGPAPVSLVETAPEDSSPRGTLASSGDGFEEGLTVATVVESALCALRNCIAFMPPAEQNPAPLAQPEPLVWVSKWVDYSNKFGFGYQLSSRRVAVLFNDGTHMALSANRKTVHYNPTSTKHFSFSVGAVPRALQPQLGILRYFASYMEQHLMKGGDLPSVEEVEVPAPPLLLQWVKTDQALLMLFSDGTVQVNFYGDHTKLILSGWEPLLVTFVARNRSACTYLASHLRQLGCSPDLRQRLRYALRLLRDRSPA
T2 sequence (Q96GD4 whole entry): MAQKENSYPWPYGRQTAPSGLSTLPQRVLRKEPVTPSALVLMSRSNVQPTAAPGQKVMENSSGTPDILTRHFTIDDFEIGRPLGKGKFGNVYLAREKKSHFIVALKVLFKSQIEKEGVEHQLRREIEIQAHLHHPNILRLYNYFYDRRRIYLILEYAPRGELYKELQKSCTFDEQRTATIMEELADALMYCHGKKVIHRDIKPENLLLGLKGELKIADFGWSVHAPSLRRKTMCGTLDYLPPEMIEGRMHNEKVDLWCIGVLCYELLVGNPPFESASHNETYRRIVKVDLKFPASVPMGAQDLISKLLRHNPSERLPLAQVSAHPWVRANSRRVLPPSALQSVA

One may read the IC50 as the concentration that gives 50% inhibition. As to `CN1CCN(c2ncc(-c3n[nH]c4cc(C=C5C(=O)Nc6ccc(OC(F)(F)F)cc65)ccc34)cn2)CC1` [Example A152, (E & Z)-3-((3-(2-(4-methylpiperazin-1-yl)pyrimidin-5-yl)-1H-indazol-6-yl)methylene)-5-(trifluoromethoxy)indolin-2-one], the figures for the IC50 against PLK3, at Aurora B and at human PLK4 were more than 0.5 µM, 5 to 50 µM and less than 5 µM, respectively.
For the compound `N#Cc1cccc2c1NC(=O)C2=Cc1ccc2cn[nH]c2c1` (mixture of isomers) [Example A45, (E and Z)-3-((1H-indazol-6-yl)methylene)-2-oxoindoline-7-carbonitrile], the IC50 against PLK3 is more than 0.5 µM; at human PLK4 it was 5 to 50 µM.
For orientation: GI50 means the concentration that inhibits growth by half. In the case of `O=C1Nc2ccccc2/C1=C\c1ccc2c(C#Cc3cccnc3)n[nH]c2c1` [Example A147, (E)-3-((3-(pyridin-3-ylethynyl)-1H-indazol-6-yl)methylene)indolin-2-one], the GI50 in assay [1] was 20 to 50 µM; with A549 lung cancer cells, more than 50 µM; in assay [2] it was more than 50 µM; in the assay with SW620 colon cancer cells it was 20 to 50 µM; in [3], 5 to 20 µM. Moreover, on human PLK4, the half-maximal inhibitory concentration (IC50) is less than 5 µM.
The term inhibition denotes the drop in the measured response relative to a control, in per cent. As for `COc1ccccc1/C=C/c1n[nH]c2cc(C=C3C(=O)Nc4ccccc43)ccc12` (mixture of isomers) [Example A59, (E and Z)-3-((3-((E)-2-methoxystyryl)-1H-indazol-6-yl)methylene)-indolin-2-one], the GI50 in [1] is less than 5 µM; with A549 lung cancer cells, 5 to 20 µM; in [2], 5 to 20 µM; with SW620 colon cancer cells, less than 5 µM; in assay [3], less than 5 µM. The IC50 is less than 5 µM on Aurora B; less than 5 µM at Aurora A (20 μM ATP, 12 nM Aurora A, read-out: Aurora A IC50 Ranges); less than 5 µM on human PLK4. Besides, the inhibition at 10 µM at PLK1 and at PLK2 was less than 50% each time.
As to `O=C1Nc2ccc(Br)cc2/C1=C\c1ccc2[nH]ncc2c1` [Example A31, (E)-3-((1H-indazol-5-yl)methylene)-5-bromoindolin-2-one], the GI50 in assay [1] and in [3] was less than 5 µM each time. In addition, the inhibition at 10 µM is more than 50% on Aurora B (10 μM compound, read-out: Aurora B relative inhibition percentage at a dose of 10 μM) and less than 50% at Aurora A. For the same compound, the half-maximal inhibitory concentration (IC50) on PLK1 was more than 50 µM; at human PLK4 it was less than 5 µM; on PLK2 (60 μM ATP, 133 nM PLK2, read-out: PLK2 IC50 Ranges) it was 5 to 50 µM.
`COc1ccc2c(c1)/C(=C\c1ccc3c(C#Cc4cccnc4)n[nH]c3c1)C(=O)N2` [Example A148, (E)-5-methoxy-3-((3-(pyridin-3-ylethynyl)-1H-indazol-6-yl)methylene)indolin-2-one]: the values for the IC50 against PLK3, on Aurora B and at human PLK4 were more than 0.5 µM, less than 5 µM and less than 5 µM, respectively.
Turning to `CN1CCN(c2ccc(-c3n[nH]c4cc(C=C5C(=O)Nc6ccc(Br)cc65)ccc34)cn2)CC1` (mixture of isomers) [Example A150, (E and Z)-5-bromo-3-((3-(6-(4-methylpiperazin-1-yl)pyridin-3-yl)-1H-indazol-6-yl)methylene)indolin-2-one], the GI50 (in assay [1]; with A549 lung cancer cells; in [2]; with SW620 colon cancer cells; in assay [3]) was less than 5 µM throughout. Moreover, the IC50 on human PLK4 is less than 5 µM.
Regarding `CN1CCN(c2ccc(-c3n[nH]c4cc(C=C5C(=O)Nc6ccccc65)ccc34)cn2)CC1` (mixture of isomers) [Example A96, (E and Z)-3-((3-(6-(4-methylpiperazin-1-yl)pyridin-3-yl)-1H-indazol-6-yl)methylene)indolin-2-one], the GI50 (in assay [1]; in the assay with A549 lung cancer cells; in assay [2]; in the assay on SW620 colon cancer cells; in [3]) was less than 5 µM throughout. For the same compound, the IC50 on Aurora B and at human PLK4 was less than 5 µM in each case. Besides, the inhibition at 10 µM on PLK1 is less than 50%; on Aurora A, more than 50%.
As to `O=C1Nc2cc(Cl)ccc2/C1=C\c1ccc2[nH]nnc2c1` [Example A4, (E)-3-((1H-benzo[d][1,2,3]triazol-5-yl)methylene)-6-chloroindolin-2-one], the GI50 in assay [1] and in [3] was 5 to 20 µM throughout. In addition, the concentration for half-maximal inhibition (IC50) on PLK1 and at human PLK4 was 5 to 50 µM in each case.
Regarding `O=C1Nc2ccc(F)cc2/C1=C/c1ccc2cn[nH]c2c1` [Example A32, (Z)-3-((1H-indazol-6-yl)methylene)-5-fluoroindolin-2-one], the GI50 in [1] and in [3] was 5 to 20 µM throughout. The IC50 at Aurora B is less than 5 µM; at PLK1, 5 to 50 µM; at human PLK4 it was less than 5 µM. Further, the inhibition at 10 µM was more than 50% at Aurora A and less than 50% on PLK2.
